Laboratory results as given in patent US4652638A, “3-O-acyl-4"-deoxydesmycosin derivatives” (Toyo Jozo Kabushiki Kaisha, priority 1983, dated 1987).
Converted amounts (≈) assume the structure as drawn. Where two headings read alike, the source gives them in different places.

Legend:
Test in all cases: MIC (minimum inhibitory concentration)
Assay type in all cases: cell-based
[1] = system: Klebsiella pneumoniae ATCC 10031; conditions: ATCC10031
Salmonella typhosa H901 = conditions: Salmonella enterica, TYPHOSA
Serratia marcescens = system: Serratia marcescens
[2] = system: Pseudomonas aeruginosa IAM 1095; conditions: IAM1095
[3] = system: Escherichia coli NIHJ-JC2; conditions: NIHJJC2
Shigella sonnei E33 = system: Shigella sonnei E33
[4] = system: Shigella flexineri type 3a; conditions: TYPE3A
[5] = system: Staphylococcus aureus MS353
[6] = system: Staphylococcus aureus MS353 A0*; conditions: * clinical isolate, macrolide-resistant bacteria A group
[7] = system: Staphylococcus aureus 0127*; conditions: Staphylococcus aureus
[8] = system: Staphylococcus aureus ATCC 6538P; conditions: ATCC6538P
[9] = system: Corynebacterium diphtheriae P.Y.8
[10] = system: Streptococcus agalaactiae 1020
Sarcina lutea ATCC 9341 = conditions: Micrococcus luteus, ATCC9341; Sarcina lutea ATCC 9341; read-out: MIC
[11] = system: Salmonella enteritidis Gaertner; conditions: Salmonella enterica
[12] = system: Micrococcus flavus ATCC 10240; conditions: ATCC10240
[13] = system: Staphylococcus aureus 0119*; conditions: Staphylococcus aureus
[14] = system: Streptococcus pyogenes N.Y.5
[15] = system: Bacillus subtilis ATCC 6633; conditions: ATCC6633
[16] = system: Streptococcus pyogenes 1022*; conditions: Streptococcus pyogenes
[17] = system: Streptococcus faecalis 1501; conditions: Enterococcus faecalis
Proteus vulgaris OX19 = system: Proteus vulgaris OX19
Escherichia coli B = system: Escherichia coli B
[18] = system: Staphylococcus aureus MS353 C36; conditions: MS353C36
[19] = system: Staphylococcus epidermidis sp-al-1; conditions: SPAL1
[20] = Escherichia coli NIHJ-JC2, read-out: MIC
[21] = Escherichia coli B, read-out: MIC

Row | SMILES | MIC ([1]; Klebsiella pneumoniae) [µg/mL] | MIC (Salmonella typhosa H901) [µg/mL] | MIC (Serratia marcescens) [µg/mL] | MIC ([2]; Pseudomonas aeruginosa) [µg/mL] | MIC [3, 20] [µg/mL] | MIC (Shigella sonnei E33) [µg/mL] | MIC [4] [µg/mL] | MIC [5] [µg/mL] | MIC [6] [µg/mL] | MIC [7] [µg/mL] | MIC [8] [µg/mL] | MIC [9] [µg/mL] | MIC ([10]; Streptococcus, 1020) [µg/mL] | MIC (Sarcina lutea ATCC 9341) [µg/mL] | MIC ([11]; ENTERITIDIS) [µg/mL] | MIC ([12]; Micrococcus flavus) [µg/mL] | MIC [13] [µg/mL] | MIC [14] [µg/mL] | MIC [16] [µg/mL] | MIC [18] [µg/mL] | other results
1 | CC[C@H]1OC(=O)[C@H](C)[C@@H](O[C@H]2C[C@@](C)(OC)[C@@H](O)[C@H](C)O2)[C@H](C)[C@@H](O[C@@H]2O[C@H](C)C[C@H](N(C)C)[C@H]2O)[C@](C)(O)C[C@@H](C)C(=O)[C@H](C)[C@@H](O)[C@]1(C)O [Erythromycin, reference compound] | 6.3 (≈ 8.58 µM) | 100 (≈ 136 µM) | 100 (≈ 136 µM) | 100 (≈ 136 µM) | 100 (≈ 136 µM) | 100 (≈ 136 µM) | 12.5 (≈ 17 µM) | 0.2 (≈ 0.273 µM) | > 100 | > 100 | 0.2 (≈ 0.273 µM) | ≤ 0.05 | ≤ 0.05 | ≤ 0.05 | 100 (≈ 136 µM) | 0.1 (≈ 0.136 µM) | > 100 | ≤ 0.05 | > 100 | > 100 | MIC ([15]; Bacillus subtilis): 0.1 µg/mL (≈ 0.136 µM); MIC [17]; 1501: 0.2 µg/mL (≈ 0.273 µM); MIC (Proteus vulgaris OX19): 50 µg/mL (≈ 68.1 µM); MIC (Escherichia coli B; [21]): > 100 µg/mL; MIC ([19]; Staphylococcus epidermidis): 0.2 µg/mL (≈ 0.273 µM)
2 | CC[C@H]1OC(=O)C[C@@H](O)[C@H](C)[C@@H](O[C@@H]2O[C@H](C)[C@@H](O[C@H]3C[C@@](C)(O)[C@@H](O)[C@H](C)O3)[C@H](N(C)C)[C@H]2O)[C@@H](CC=O)C[C@@H](C)C(=O)/C=C/C(C)=C/[C@@H]1CO[C@@H]1O[C@H](C)[C@@H](O)[C@@H](OC)[C@H]1OC [Tylosin, reference compound] | 50 (≈ 54.6 µM) | > 100 | > 100 | > 100 | – | > 100 | 50 (≈ 54.6 µM) | 0.8 (≈ 0.873 µM) | > 100 | > 100 | – | ≤ 0.05 | 0.2 (≈ 0.218 µM) | ≤ 0.05 | > 100 | ≤ 0.05 | > 100 | 0.1 (≈ 0.109 µM) | > 100 | 0.4 (≈ 0.437 µM) | MIC ([3]; Escherichia coli): > 100 µg/mL; MIC ([15]; Bacillus subtilis): 0.2 µg/mL (≈ 0.218 µM); MIC [17]; 1501: 0.8 µg/mL (≈ 0.873 µM); MIC (Proteus vulgaris OX19): > 100 µg/mL; MIC (Escherichia coli B; Escherichia coli): > 100 µg/mL; MIC ([19]; Staphylococcus epidermidis): 0.4 µg/mL (≈ 0.437 µM)
3 | CCC1OC(=O)CC(OC(=O)CC(C)C)C(C)C(OC2OC(C)C(O)C(N(C)C)C2O)C(CC=O)CC(C)C(=O)C=CC(C)=CC1COC1OC(C)CC(OC)C1OC (centres unmarked) [Example 4, 3-O-isovaleryl-4"-deoxydesmycosin] | – | > 100 | – | – | > 100 | > 100 | 50 (≈ 59.5 µM) | 0.4 (≈ 0.476 µM) | > 100 | > 100 | 0.4 (≈ 0.476 µM) | – | – | ≤ 0.05 | – | – | > 100 | ≤ 0.05 | > 100 | 0.4 (≈ 0.476 µM) | MIC ([1]; Klebsiella pneumoniae ATCC 10031, read-out: MIC): 25 µg/mL (≈ 29.8 µM); MIC (Serratia marcescens; read-out: MIC): > 100 µg/mL; MIC ([2]; Pseudomonas aeruginosa IAM 1095, read-out: MIC): > 100 µg/mL; MIC ([9]; read-out: MIC): ≤ 0.05 µg/mL; MIC ([10]; Streptococcus agalaactiae 1020, read-out: MIC): ≤ 0.05 µg/mL; MIC ([11]; Salmonella enteritidis Gaertner, read-out: MIC): > 100 µg/mL; MIC ([12]; Micrococcus flavus ATCC 10240, read-out: MIC): ≤ 0.05 µg/mL; MIC ([15]; Bacillus subtilis ATCC 6633, read-out: MIC): 0.2 µg/mL (≈ 0.238 µM); MIC ([17]; Streptococcus faecalis 1501, read-out: MIC): 0.4 µg/mL (≈ 0.476 µM); MIC (Proteus vulgaris OX19; read-out: MIC): 50 µg/mL (≈ 59.5 µM); MIC (Escherichia coli B; [21]): > 100 µg/mL; MIC ([19]; Staphylococcus epidermidis sp-al-1, read-out: MIC): 0.1 µg/mL (≈ 0.119 µM)
